According to patent US10947210B2 (priority 2015, dated 2021):
Like-named read-outs stand apart in the source and are kept apart here.

How the values were obtained:
[1] = test system: HCV subgenomic RNA replicon in Huh-luc/neo-ET cells; assay: HCV Replicon Assay and EC50 Determination; type: cell-based; conditions: Hepatitis C virus, 72 hours, luciferase reporter activity
Experimental: HCV Replicon Assay and EC50 Determination.
HCV replicon assay is based on the luciferase reporter cell line (Huh-luc/neo-ET). This reporter cell line is a human liver carcinoma cell line (Huh-7) stably transfected with an autonomously replicating bicistronic HCV subgenomic RNA replicon (Lohmann et al., 1999, Science, 285, 110-113). Inhibition of HCV RNA replication was monitored through analysis of reporter luciferase activity. Briefly, HCV replicon cells were incubated with inhibitors for 72 hours at 37° C. After the incubation, duplicate plates were treated and incubated in parallel for assessment of cellular toxicity by XTT staining and anti-HCV activity by measurement of luciferase reporter activity. Either human interferon alpha 2B or ribavirin was used as a reference compound. EC50 values were determined using GraFit (Erithaus software) or Excel.
Table 2 presents EC50 data obtained using this HCV replicaon assay to test representative compounds. Data are presented as follows: “+++” means <0.1 μM; “++” means ≥0.1 μM and <1.0 μM; “+” means ≥1.0 μM.

[2] = molecular target: HCV RNA-dependent RNA polymerase (NS5B) (Hepatitis C virus genotype 1b (isolate BK) (HCV), UniProt P26663); assay: RNA-Dependent RNA HCV NS5B (polymerase) Assay and IC50 Determination; type: biochemical; conditions: purified HCV NS5B polymerase, polyA:U16 substrate, 32P-UTP incorporation
How it was run: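 Purified NS5B was incubated with 0.5 uM polyA:U16, 10 μM UTP plus ^32P-UTP in 50 mM Hepes-KOH pH 7.5, 5 mM MgCl2, 5 mM DTT, 2% glycerol and 0.01% Triton X-100. Inhibitor reactions ran 60 min at 37° C, and radiolabelled RNA product was quantified after filter capture. IC50 values were obtained from concentration series.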

Sequence of HCV RNA-dependent RNA polymerase (NS5B) (P26663 2420-3010): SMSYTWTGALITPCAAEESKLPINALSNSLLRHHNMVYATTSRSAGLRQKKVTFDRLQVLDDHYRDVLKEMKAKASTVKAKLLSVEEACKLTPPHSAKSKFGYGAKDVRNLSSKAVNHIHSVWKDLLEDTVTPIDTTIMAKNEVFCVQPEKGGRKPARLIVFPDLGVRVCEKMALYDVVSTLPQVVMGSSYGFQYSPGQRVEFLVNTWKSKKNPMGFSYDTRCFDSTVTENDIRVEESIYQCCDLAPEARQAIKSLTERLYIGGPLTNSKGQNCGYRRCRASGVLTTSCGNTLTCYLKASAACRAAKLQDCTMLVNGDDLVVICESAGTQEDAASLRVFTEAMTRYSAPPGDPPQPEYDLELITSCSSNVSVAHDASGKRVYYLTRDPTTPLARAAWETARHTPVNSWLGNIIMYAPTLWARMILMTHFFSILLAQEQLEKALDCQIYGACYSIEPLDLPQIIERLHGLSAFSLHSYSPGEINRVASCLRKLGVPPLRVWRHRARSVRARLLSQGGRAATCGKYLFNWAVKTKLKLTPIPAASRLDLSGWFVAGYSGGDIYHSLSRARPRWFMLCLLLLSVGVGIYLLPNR

Compound	EC50 [1] [nM]	IC50 ([2]; read-out: IC50) [µM]	IC50 ([2]; IC50 (μM)) [µM]
CNC(=O)c1c(-c2ccc(F)cc2)oc2cc(N(CCOCCOCc3cccc(C(=O)/C=C(\O)C(=O)O)c3)S(C)(=O)=O)c(C3CC3)cc12 [Compound 02-10A, 4-{3-[2-(2-{[5-Cyclopropyl-2-(4-fluoro-phenyl)-3-methylcarbamoyl-benzofuran-6-yl]-methanesulfonyl-amino}-ethoxy)-ethoxymethyl]-phenyl}-2-hydroxy-4-oxo-but-2-enoic Acid]	< 100	0.1 to 1	–
CNC(=O)c1c(-c2ccc(F)cc2)oc2cc(N(CCCCCOCc3ccc(C(=O)O)cc3)S(C)(=O)=O)c(C3CC3)cc12 [Compound 16-7, 4-(5-{[5-Cyclopropyl-2-(4-fluoro-phenyl)-3-methylcarbamoyl-benzofuran-6-yl]-methanesulfonyl-amino}-pentyloxymethyl)-benzoic Acid]	< 100	0.1 to 1	–
CNC(=O)c1c(-c2ccc(F)cc2)oc2cc(N(CC(=O)NC3(C(=O)NCc4cccc(C(=O)C=C(O)C(=O)O)c4)CCCC3)S(C)(=O)=O)c(C3CC3)cc12 [Compound 09-14E, 4-[3-({[1-(2-{[5-Cyclopropyl-2-(4-fluoro-phenyl)-3-methylcarbamoyl-benzofuran-6-yl]-methanesulfonyl-amino}-acetylamino)-cyclopentanecarbonyl]-amino}-methyl)-phenyl]-2-hydroxy-4-oxo-but-2-enoic Acid]	100 to 1000	> 1	–
CNC(=O)c1c(-c2ccc(F)cc2)oc2cc(N(CCOCCOCc3ccc(C(=O)/C=C(\O)C(=O)O)cc3)S(C)(=O)=O)c(C3CC3)cc12 [Compound 02-10F, 4-{4-[2-(2-{[5-Cyclopropyl-2-(4-fluoro-phenyl)-3-methylcarbamoyl-benzofuran-6-yl]-methanesulfonyl-amino}-ethoxy)-ethoxymethyl]-phenyl}-2-hydroxy-4-oxo-but-2-enoic Acid]	< 100	> 1	–
CNC(=O)c1c(-c2ccc(F)cc2)oc2cc(N(CCCCOCCc3ccc(C(=O)O)cc3)S(C)(=O)=O)c(C3CC3)cc12 [Compound 13-8C, 4-(2-(4-(N-(5-cyclopropyl-2-(4-fluorophenyl)-3-(methylcarbamoyl)benzofuran-6-yl)-methylsulfonamido)butoxy)-ethyl)benzoic Acid]	< 100	0.1 to 1	–
CNC(=O)c1c(-c2ccc(F)cc2)oc2cc(N(CCOCCOCCOCCO)S(C)(=O)=O)c(C3CC3)cc12 [Compound 04-5, 5-Cyclopropyl-2-(4-fluorophenyl)-6-(N-(2-(2-(2-(2-hydroxyethoxy)-ethoxy)-ethoxy)-ethyl) Methylsulfonamido)-N-methylbenzofuran-3-carboxamide]	100 to 1000	–	> 1
CNC(=O)c1c(-c2ccc(F)cc2)oc2cc(N(CCOCCCc3cccc(C(=O)/C=C(\O)C(=O)O)c3)S(C)(=O)=O)c(C3CC3)cc12 [Compound 22-12, 4-(3-(3-(2-(N-(5-cyclopropyl-2-(4-fluorophenyl)-3-(methylcarbamoyl)benzofuran-6-yl)methylsulfonamido)-ethoxy)-propyl)-phenyl)-2-hydroxy-4-oxobut-2-enoic Acid]	< 100	> 1	–
CNC(=O)c1c(-c2ccc(F)cc2)oc2cc(N(CCOCCCOCc3cccc(C(=O)/C=C(\O)C(=O)O)c3)S(C)(=O)=O)c(C3CC3)cc12 [Compound 03-8B, 4-{3-[3-(2-{[5-Cyclopropyl-2-(4-fluoro-phenyl)-3-methylcarbamoyl-benzofuran-6-yl]-methanesulfonyl-amino}-ethoxy)-propoxymethyl]-phenyl}-2-hydroxy-4-oxo-but-2-enoic Acid]	< 100	> 1	–
CNC(=O)c1c(-c2ccc(F)cc2)oc2cc(N(CCOCCOCCOCC(=O)NO)S(C)(=O)=O)c(C3CC3)cc12 [Compound 23-6C, 5-Cyclopropyl-2-(4-fluoro-phenyl)-6-({2-[2-(2-hydroxycarbamoylmethoxy-ethoxy)-ethoxy]-ethyl}-methanesulfonyl-amino)-benzofuran-3-carboxylic Acid Methylamide]	< 100	–	0.1 to 1
CNC(=O)c1c(-c2ccc(F)cc2)oc2cc(N(CCCCCCCc3ccc(C(=O)O)cc3)S(C)(=O)=O)c(C3CC3)cc12 [Compound 13-8D, 4-(7-{[5-Cyclopropyl-2-(4-fluoro-phenyl)-3-methylcarbamoyl-benzofuran-6-yl]-methanesulfonyl-amino}-heptyl)-benzoic Acid]	< 100	0.1 to 1	–
CNC(=O)c1c(-c2ccc(F)cc2)oc2cc(N(CC(=O)NCC(=O)NCc3cccc(C(=O)/C=C(\O)C(=O)O)c3)S(C)(=O)=O)c(C3CC3)cc12 [Compound 09-14A, 4-(3-{[2-(2-{[5-Cyclopropyl-2-(4-fluoro-phenyl)-3-methylcarbamoyl-benzofuran-6-yl]-methanesulfonyl-amino}-acetylamino)-acetylamino]-methyl}-phenyl)-2-hydroxy-4-oxo-but-2-enoic Acid]	100 to 1000	0.1 to 1	–
CNC(=O)c1c(-c2ccc(F)cc2)oc2cc(N(CCOCCOCCOCCOCCOCCOCc3cccc(C(=O)/C=C(\O)C(=O)O)c3)S(C)(=O)=O)c(C3CC3)cc12 [Compound 02-10E, 4-(3-{2-[2-(2-{2-[2-(2-{[5-Cyclopropyl-2-(4-fluoro-phenyl)-3-methylcarbamoyl-benzofuran-6-yl]-methanesulfonyl-amino}-ethoxy)-ethoxy]-ethoxy}-ethoxy)-ethoxy]-ethoxymethyl}-phenyl)-2-hydroxy-4-oxo-but-2-enoic Acid]	100 to 1000	> 1	–
CNC(=O)c1c(-c2ccc(F)cc2)oc2cc(N(CCOCCOCc3cccc(C(C)=O)c3)S(C)(=O)=O)c(C3CC3)cc12 [Compound 02-8A, 6-(N-(2-(2-(3-Acetylbenzyloxy)-ethoxy)-ethyl)-methylsulfonamido)-5-cyclopropyl-2-(4-fluorophenyl)-N-methylbenzofuran-3-carboxamide]	< 100	–	> 1
CNC(=O)c1c(-c2ccc(F)cc2)oc2cc(N(CCOCCOCCOCC(=O)O)S(C)(=O)=O)c(C3CC3)cc12 [Compound 23-6A, {2-[2-(2-{[5-Cyclopropyl-2-(4-fluoro-phenyl)-3-methylcarbamoyl-benzofuran-6-yl]-methanesulfonyl-amino}-ethoxy)-ethoxy]-ethoxy}-acetic Acid]	100 to 1000	0.1 to 1	–
CNC(=O)c1c(-c2ccc(F)cc2)oc2cc(N(CCOCCOCCOC(C)C(=O)O)S(C)(=O)=O)c(C3CC3)cc12 (centres unmarked) [Compound 23-6B, 2-{2-[2-(2-{[5-Cyclopropyl-2-(4-fluoro-phenyl)-3-methylcarbamoyl-benzofuran-6-yl]-methanesulfonyl-amino}-ethoxy)-ethoxy]-ethoxy}-propionic Acid]	< 100	0.1 to 1	–
CNC(=O)c1c(-c2ccc(F)cc2)oc2cc(N(CCOCCOCc3cccc(C(=O)O)c3)S(C)(=O)=O)c(C3CC3)cc12 [Compound 06-7C, 3-[2-(2-{[5-Cyclopropyl-2-(4-fluoro-phenyl)-3-methylcarbamoyl-benzofuran-6-yl]-methanesulfonyl-amino}-ethoxy)-ethoxymethyl]-benzoic Acid]	< 100	0.1 to 1	–
